From US9926315B2, “Triazolopyridine compounds and methods for the treatment of cystic fibrosis” (Flatley Discovery Lab, LLC, priority 2014, dated 2018)

Target: T1, human ΔF508-CFTR (Homo sapiens, UniProt P13569, DEL508-508)
T1 construct: expressed in transfected cells
Test: CFTR-YFP High Throughput Assay (HTS YFP flux assay, corrector / potentiator protocols)
Type: cell-based
Conditions: FRT cells stably expressing human ΔF508-CFTR and YFP-H148Q/I152L
Procedure: Assays for Detecting and Measuring the Effect of Compounds on dF508-CFTR Channels CFRT-YFP High Throughput Assay: Corrector Assay:
The following protocol is designed to selectively screen small molecule compounds for F508del CFTR corrector activities in the HTS YFP flux assay. In this protocol, the cells are incubated with testing compounds for 24 hours, washed with PBS, stimulated with forskolin and a standard potentiator, and read on a 384-well HTS plate reader, such as the Hamamatsu FDDD-6000.
(§1) YFP fluorescence intensity is acquired at high speed before and after iodide buffer is injected to the assay cells. Iodide enters the cells via active CFTR channels in the plasma membrane, and quenches the YFP fluorescence. The rate of fluorescence quenching is proportionally related to the total CFTR activities in the cell membrane. dF508-CFTR corrector accelerates YFP quenching by increasing the number of CFTR molecules in the testing cell plasma membrane.
This method was initially developed for bench top plate readers (Galietta, 2001), and was adapted to the HTS format (Sui, 2010).
Fisher Rat Thyroid (FRT) cells stably expressing both human ΔF508-CFTR and a halide-sensitive yellow fluorescent protein (YFP-H148Q/I152L 25, 22) (Galietta, 2001) were cultured on plastic surface in Coon's modified Ham's F12 medium supplemented with FBS 10%, L-glutamine 2 mM, penicillin 100 U/mL, and streptomycin 100 μg/mL. G418 (0.75-1.0 mg/mL) and zeocin (3.2 μg/mL) were used for selection of FRT cells expressing ΔF508-CFTR and YFP. For primary screening, FRT cells were plated into 384-well black wall, transparent bottom microtiter plates (Costar; Corning Inc.) at a cell density of 20, 000-40, 000 per well. Test compound was applied to the cells at varying concentrations ranging from 2 nM-[…] in either a 2-fold or 3-fold dilution series. Cells were incubated in a cell culture incubator at 37° C. with 5% CO2 for 24-26 h. Assay plates were washed with DPBS media (Thermo, cat#SH30028.02) to remove unbound cells and compound. Stimulation media (25 μL) containing 20 μM Forskolin & 30 μM P3 [6-(Ethyl-phenyl-sulfonyl)-4-oxo-1, 4-dihydro-quinoline-3-carboxylic acid 2-methoxy-benzylamide] in Hams F-12 coon's modified media was added to the plate wells and incubated at room temperature for 60-120 min. 25 μL of HEPES-PBS-I buffer (10 mM HEPES, 1 mM MgCl2, 3 mM KCl, 1 mM CaCl2, 150 mM NaI) was then added and fluorescence quench curves (Excitation 500 nm/Emission 540 nm; exposure 136 ms) were immediately recorded on an FDSS-6000 plate reader (Hamamatsu). Quench rates were derived from least squares fitting of the data (Sui, 2010).
The following protocol is designed to selectively screen small molecule compounds for F508del CFTR potentiator activities in the HTS YFP flux assay. In this protocol, the cells are incubated at 27° C. for 24 hours with homogeneously boosted dF508-CFTR expression in the cell membrane by the low temperature, washed with PBS, stimulated with forskolin, and read on a 384-well HTS plate reader, such as the Hamamatsu […].
as §1, with “dF508del-CFTR potentiators accelerate” for “dF508-CFTR corrector accelerates”, “increasing” for “increasing the number of”, “activities” for “molecules”
Fisher Rat Thyroid (FRT) cells stably expressing both human ΔF508-CFTR and a halide-sensitive yellow fluorescent protein (YFP-H148Q/I152L 25, 22) (Galietta, 2001) were cultured on plastic surface in Coon's modified Ham's F12 medium supplemented with FBS 10%, L-glutamine 2 mM, penicillin 100 U/mL, and streptomycin 100 μg/mL. G418 (0.75-1.0 mg/mL) and zeocin (3.2 μg/mL) were used for selection of FRT cells expressing ΔF508-CFTR and YFP. […]

T1 sequence (P13569 with tags, fused parts or gaps DEL508-508): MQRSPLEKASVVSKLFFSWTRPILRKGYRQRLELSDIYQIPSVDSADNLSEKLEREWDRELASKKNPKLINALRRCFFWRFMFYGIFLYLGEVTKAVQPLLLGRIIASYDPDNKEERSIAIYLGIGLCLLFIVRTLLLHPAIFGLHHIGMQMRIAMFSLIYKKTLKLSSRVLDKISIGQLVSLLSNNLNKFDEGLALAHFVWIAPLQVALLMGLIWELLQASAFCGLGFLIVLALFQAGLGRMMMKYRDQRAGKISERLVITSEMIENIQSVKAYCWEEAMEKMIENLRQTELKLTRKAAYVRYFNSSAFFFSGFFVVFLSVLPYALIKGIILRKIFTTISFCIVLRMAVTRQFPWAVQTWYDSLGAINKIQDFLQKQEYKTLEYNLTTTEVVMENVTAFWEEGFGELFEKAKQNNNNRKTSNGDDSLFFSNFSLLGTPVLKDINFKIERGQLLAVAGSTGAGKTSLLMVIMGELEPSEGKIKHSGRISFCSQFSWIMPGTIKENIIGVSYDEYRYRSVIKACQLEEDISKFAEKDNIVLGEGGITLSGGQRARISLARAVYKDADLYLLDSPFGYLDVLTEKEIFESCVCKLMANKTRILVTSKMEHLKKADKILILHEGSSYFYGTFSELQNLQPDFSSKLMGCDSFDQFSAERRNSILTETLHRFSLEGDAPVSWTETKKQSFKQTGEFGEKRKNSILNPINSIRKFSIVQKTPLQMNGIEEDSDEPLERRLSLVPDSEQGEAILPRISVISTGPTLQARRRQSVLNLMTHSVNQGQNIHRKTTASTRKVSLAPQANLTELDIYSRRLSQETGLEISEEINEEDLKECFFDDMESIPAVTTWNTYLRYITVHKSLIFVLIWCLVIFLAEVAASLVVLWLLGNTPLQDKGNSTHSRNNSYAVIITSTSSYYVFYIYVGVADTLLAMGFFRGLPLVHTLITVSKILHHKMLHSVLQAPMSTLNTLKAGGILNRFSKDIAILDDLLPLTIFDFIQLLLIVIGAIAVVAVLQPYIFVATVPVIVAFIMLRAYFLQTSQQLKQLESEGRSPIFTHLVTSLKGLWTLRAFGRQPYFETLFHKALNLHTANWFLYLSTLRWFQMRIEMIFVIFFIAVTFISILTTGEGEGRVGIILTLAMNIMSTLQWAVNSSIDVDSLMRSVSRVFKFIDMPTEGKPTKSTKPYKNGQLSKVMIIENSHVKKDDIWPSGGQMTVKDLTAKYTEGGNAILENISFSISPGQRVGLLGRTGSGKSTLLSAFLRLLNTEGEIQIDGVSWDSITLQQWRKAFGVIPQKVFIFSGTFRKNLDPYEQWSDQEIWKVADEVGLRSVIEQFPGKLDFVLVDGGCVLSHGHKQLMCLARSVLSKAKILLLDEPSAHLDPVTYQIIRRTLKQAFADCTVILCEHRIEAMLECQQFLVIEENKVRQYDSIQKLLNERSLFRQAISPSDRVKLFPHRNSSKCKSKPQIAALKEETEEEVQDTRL

Compound: Cc1ccc(CNc2nc3ccc(S(=O)(=O)N4CCCCC4)cn3n2)cc1 [Example 102]
- EC50: < 1000 nM
- Emax (normalized to positive control, read-out: Emax (% Efficacy, EMax normalized to the positive control)): > 80%
